Among the data in US12312347B2, “Azaindole derivative and use thereof as FGFR and C-Met inhibitor” (Wuxi Life Fountain Biotech Co., Ltd, priority 2018, dated 2025) are IC50 values, retold here.

Where a name gives a salt, the structure may show the parent alone.

Common to all, as to type: biochemical
One assay deals with T1, human FGFR1 (Homo sapiens, UniProt P11362).
T1 construct: purchased Invitrogen PV3146
In words: 33P isotope-labeled kinase activity test, FGFR1. To be noted: ATP 5 μM. How it is done:
(§1) The inhibitory activities of the tested compounds on human FGFR1, FGFR4, and c-Met were evaluated by the IC50 values measured using ^33P isotope-labeled kinase activity test (Reaction Biology Corp).
(§2) Buffer condition: 20 mM Hepes (pH 7.5), 10 mM MgCl2, 1 mM EGTA, 0.02% Brij35, 0.02 mg/mL BSA, 0.1 mM Na3VO4, 2 mM DTT, 1% DMSO.
Test procedure: The test compounds were dissolved in DMSO at room temperature and formulated to be 10 mM solutions for later use. The substrates were dissolved in freshly prepared buffer, and kinases to be tested were added and mixed well. The test compounds dissolved in DMSO were added to the above mixed reaction solutions by acoustic technique (Echo 550). […] After incubation for 15 min, ^33P-ATP (activity 0.01 μCi/μL, corresponding concentrations are listed in Table 1) was added to start the reaction. Supplier item number, batch number, as well as the concentration information in the reaction solution of FGFR1, FGFR4, c-Met and substrates thereof are listed in Table 1. […] The kinase activity data are expressed by comparison between the kinase activity in the test compound group and the kinase activity in the blank group (containing DMSO only). IC50 values were obtained by curve fitting with Prism4 software (GraphPad).

For another assay, the target named is T2, human FGFR4 (Homo sapiens, UniProt P22455).
T2 construct: purchased Invitrogen P3054
In words: 33P isotope-labeled kinase activity test, FGFR4. To be noted: ATP 100 μM. How it is done:
as §1, §2
(§3) Test procedure: The test compounds were dissolved in DMSO at room temperature and formulated to be 10 mM solutions for later use. The substrates were dissolved in freshly prepared buffer, and kinases to be tested were added and mixed well. The test compounds dissolved in DMSO were added to the above mixed reaction solutions by acoustic technique (Echo 550). The concentration of the compound in reaction solution was 1 μM, […], 3.91 nM, 0.977 nM, 0.244 nM, 0.061 nM, 0.0153 nM, 0.00381 nM or 10 μM, 2.50 μM, 0.62 μM, 0.156 μM, 39.1 nM, 9.8 nM, 2.4 nM, 0.61 nM, 0.15 nM, 0.038 nM. After incubation for 15 min, ^33P-ATP (activity 0.01 μCi/μL, corresponding concentrations are listed in Table 1) was added to start the reaction. Supplier item number, batch number, as well as the concentration information in the reaction solution of FGFR1, FGFR4, c-Met and substrates thereof are listed in Table 1. […] The kinase activity data are expressed by comparison between the kinase activity in the test compound group and the kinase activity in the blank group (containing DMSO only). IC50 values were obtained by curve fitting with Prism4 software (GraphPad).

For another assay, the target named is T3, human c-Met (Homo sapiens, UniProt P08581).
T3 construct: purchased Invitrogen PV3143
In words: 33P isotope-labeled kinase activity test, c-Met. To be noted: ATP 10 μM. How it is done:
as §1, §2, §3

T1 sequence (P11362 22-822): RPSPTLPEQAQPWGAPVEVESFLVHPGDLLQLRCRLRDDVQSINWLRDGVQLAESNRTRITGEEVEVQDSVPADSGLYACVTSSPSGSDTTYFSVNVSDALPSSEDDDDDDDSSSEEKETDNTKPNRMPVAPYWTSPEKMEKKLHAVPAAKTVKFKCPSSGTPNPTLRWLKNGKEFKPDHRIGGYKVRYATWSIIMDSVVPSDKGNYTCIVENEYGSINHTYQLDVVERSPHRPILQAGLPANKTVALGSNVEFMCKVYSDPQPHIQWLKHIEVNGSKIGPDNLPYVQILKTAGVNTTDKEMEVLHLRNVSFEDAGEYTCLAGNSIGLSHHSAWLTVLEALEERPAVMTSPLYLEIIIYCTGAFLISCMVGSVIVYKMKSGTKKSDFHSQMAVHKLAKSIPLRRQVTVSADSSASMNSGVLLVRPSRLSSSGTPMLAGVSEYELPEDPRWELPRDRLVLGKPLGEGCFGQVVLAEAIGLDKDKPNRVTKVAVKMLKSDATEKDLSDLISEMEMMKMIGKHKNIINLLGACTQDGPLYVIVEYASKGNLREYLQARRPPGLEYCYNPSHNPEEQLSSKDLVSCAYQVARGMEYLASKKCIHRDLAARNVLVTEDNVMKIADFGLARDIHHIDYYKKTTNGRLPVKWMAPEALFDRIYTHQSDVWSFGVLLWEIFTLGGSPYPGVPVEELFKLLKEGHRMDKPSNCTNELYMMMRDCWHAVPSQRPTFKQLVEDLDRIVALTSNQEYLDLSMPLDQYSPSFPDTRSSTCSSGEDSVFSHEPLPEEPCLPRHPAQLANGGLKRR
T3 sequence (P08581 25-1390): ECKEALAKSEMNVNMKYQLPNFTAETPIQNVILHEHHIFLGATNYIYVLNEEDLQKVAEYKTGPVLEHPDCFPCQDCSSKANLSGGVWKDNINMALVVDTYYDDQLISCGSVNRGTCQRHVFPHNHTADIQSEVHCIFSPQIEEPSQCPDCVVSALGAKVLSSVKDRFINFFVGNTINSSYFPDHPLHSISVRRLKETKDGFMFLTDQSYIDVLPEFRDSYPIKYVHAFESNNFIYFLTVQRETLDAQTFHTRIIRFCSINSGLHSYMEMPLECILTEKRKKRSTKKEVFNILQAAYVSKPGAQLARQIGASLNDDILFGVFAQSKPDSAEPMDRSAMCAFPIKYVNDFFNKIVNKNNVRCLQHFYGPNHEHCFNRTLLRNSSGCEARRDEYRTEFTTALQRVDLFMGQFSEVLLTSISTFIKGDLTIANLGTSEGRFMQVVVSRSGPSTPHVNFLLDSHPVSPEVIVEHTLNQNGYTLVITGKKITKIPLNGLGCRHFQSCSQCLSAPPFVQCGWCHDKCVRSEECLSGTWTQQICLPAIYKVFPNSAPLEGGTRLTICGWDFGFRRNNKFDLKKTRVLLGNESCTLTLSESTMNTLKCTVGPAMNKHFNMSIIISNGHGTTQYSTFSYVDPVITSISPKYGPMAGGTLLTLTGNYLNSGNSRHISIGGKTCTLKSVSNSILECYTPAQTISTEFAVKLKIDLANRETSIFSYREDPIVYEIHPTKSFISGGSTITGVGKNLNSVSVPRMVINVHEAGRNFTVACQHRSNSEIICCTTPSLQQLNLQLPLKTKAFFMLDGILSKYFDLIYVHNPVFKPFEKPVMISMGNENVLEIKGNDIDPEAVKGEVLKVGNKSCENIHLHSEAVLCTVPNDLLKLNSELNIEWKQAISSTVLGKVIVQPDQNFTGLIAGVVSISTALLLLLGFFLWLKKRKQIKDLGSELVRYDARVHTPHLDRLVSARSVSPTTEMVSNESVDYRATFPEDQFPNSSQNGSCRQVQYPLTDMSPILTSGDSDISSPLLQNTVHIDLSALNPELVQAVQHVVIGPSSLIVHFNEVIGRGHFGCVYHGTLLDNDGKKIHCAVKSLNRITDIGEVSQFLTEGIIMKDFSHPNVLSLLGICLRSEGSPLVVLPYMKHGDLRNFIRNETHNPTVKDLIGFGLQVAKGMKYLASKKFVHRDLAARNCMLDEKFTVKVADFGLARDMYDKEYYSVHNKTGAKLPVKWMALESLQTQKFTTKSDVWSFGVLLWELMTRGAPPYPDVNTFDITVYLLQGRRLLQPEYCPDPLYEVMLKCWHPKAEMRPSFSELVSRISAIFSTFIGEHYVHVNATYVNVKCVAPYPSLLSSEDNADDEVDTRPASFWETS
T2 sequence (P22455 22-802): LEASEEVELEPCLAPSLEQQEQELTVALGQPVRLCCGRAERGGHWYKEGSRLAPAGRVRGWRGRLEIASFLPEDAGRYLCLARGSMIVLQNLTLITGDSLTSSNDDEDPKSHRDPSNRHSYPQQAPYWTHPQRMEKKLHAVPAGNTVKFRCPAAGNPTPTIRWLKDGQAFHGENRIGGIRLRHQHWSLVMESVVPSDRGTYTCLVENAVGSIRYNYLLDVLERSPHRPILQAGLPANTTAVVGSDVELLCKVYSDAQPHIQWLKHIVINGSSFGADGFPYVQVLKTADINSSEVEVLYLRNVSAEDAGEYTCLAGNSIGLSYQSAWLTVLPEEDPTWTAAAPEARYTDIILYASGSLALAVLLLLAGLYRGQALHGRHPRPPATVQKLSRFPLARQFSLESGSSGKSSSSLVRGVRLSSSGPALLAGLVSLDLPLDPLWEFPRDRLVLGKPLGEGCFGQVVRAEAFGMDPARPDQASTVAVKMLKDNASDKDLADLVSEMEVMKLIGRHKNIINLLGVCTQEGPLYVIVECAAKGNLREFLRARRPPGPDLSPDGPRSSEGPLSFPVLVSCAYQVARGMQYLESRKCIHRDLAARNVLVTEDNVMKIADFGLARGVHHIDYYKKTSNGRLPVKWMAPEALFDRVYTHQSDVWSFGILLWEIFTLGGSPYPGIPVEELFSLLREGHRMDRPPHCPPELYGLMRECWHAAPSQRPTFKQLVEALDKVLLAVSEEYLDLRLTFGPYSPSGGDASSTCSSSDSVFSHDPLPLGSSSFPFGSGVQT

With `COc1cc(OC)c(F)c(Cc2c[nH]c3ncc(-c4cnn(C5CCN(CCO)CC5)c4)cc23)c1F` [Embodiment 16], the IC50 was determined as 0.73 nM on human FGFR1, 16.1 nM at human FGFR4 and 10.5 nM against human c-Met.

As for `COc1cc(OC)c(F)c(Cc2c[nH]c3ncc(-c4cnn(CCN(C)C)c4)cc23)c1F` [Hydrochloride of embodiment 28], the IC50 against human FGFR1 amounted to 0.55 nM; at human FGFR4 it was 20.2 nM; against human c-Met, 25.9 nM.

For `COc1cc(OC)c(F)c(Cc2c[nH]c3ncc(-c4c(C)nn(CCO)c4C)cc23)c1F` [Hydrochloride of embodiment 34], the IC50 amounted to 8.9 nM on human FGFR1, 126 nM at human FGFR4 and 86.7 nM on human c-Met.

With `CCN1CCC(n2ncc(-c3cnc4[nH]cc(Cc5c(F)c(OC)cc(OC)c5F)c4c3)c2Cl)CC1` [Hydrochloride of embodiment 40], the IC50 at human FGFR1 turned out to be 0.4 nM; against human FGFR4, 21.5 nM; against human c-Met, 14.6 nM.

As to `CCN1CCC(n2cc(-c3cnc4[nH]cc(Cc5c(F)c(OC)cc(OC)c5F)c4c3)c(C#N)n2)CC1` [Hydrochloride of embodiment 42], the IC50 on human FGFR1 stood at 1.4 nM; against human FGFR4, 10.2 nM; against human c-Met, 7.1 nM.

For `COc1cc(OC)c(F)c(Cc2c[nH]c3ncc(-c4cnn(CCO)c4)cc23)c1F` [Hydrochloride of embodiment 46], the IC50 at human FGFR1 was 0.42 nM; at human FGFR4, 2.9 nM; on human c-Met, 8.9 nM.

In the case of `COc1cc(OC)c(F)c(Cc2c[nH]c3ncc(-c4ccc(C5(C#N)CCNCC5)cc4)cc23)c1F` [Hydrochloride of embodiment 57], the IC50 stood at 1.1 nM on human FGFR1, 21.4 nM against human FGFR4 and 49.4 nM against human c-Met.

As for `CCN(CC)CCn1cc(-c2cnc3[nH]cc(Cc4c(F)c(OC)cc(OC)c4F)c3c2)cn1` [Hydrochloride of embodiment 69], the figures for the IC50 at human FGFR1, against human FGFR4 and against human c-Met were 0.6 nM, 8.4 nM and 35.3 nM, respectively.

In the case of `COCCNCCn1cc(-c2cnc3[nH]cc(Cc4c(F)c(OC)cc(OC)c4F)c3c2)cn1` [Hydrochloride of embodiment 70], the IC50 against human FGFR1 was 0.5 nM; against human FGFR4, 5 nM; against human c-Met it was 31.4 nM.

As to `COc1cc(OC)c(F)c(Cc2c[nH]c3ncc(-c4cnn(CC(O)CNC(C)C)c4)cc23)c1F` (stereo not drawn) [Hydrochloride of embodiment 71], the IC50 on human FGFR1 came to 0.4 nM; on human FGFR4 it was 4.9 nM; against human c-Met, 32.8 nM.

With `COc1cc(OC)c(F)c(Cc2c[nH]c3ncc(-c4cnn(CC(O)CO)c4)cc23)c1F` (stereo not drawn) [Hydrochloride of embodiment 73], the IC50 was found to be 0.6 nM at human FGFR1, 2.5 nM against human FGFR4 and 32.4 nM against human c-Met.

Consider `CCN1CCC(n2cc(-c3cnc4[nH]cc(Cc5c(F)c(OC)cc(OC)c5F)c4n3)cn2)CC1` [Trifluoroacetate salt of embodiment 6], for which the IC50 at human FGFR1 came to 0.04 nM; against human FGFR4, 15.2 nM; against human c-Met, 74.3 nM.

On to `COc1cc(OC)c(F)c(Cc2c[nH]c3ncc(-c4cnn(CCO)c4)nc23)c1F` [Trifluoroacetate salt of embodiment 8], for which the IC50 was 0.43 nM against human FGFR1, 20.7 nM on human FGFR4 and 496 nM against human c-Met.

As to `COc1cc(OC)c(F)c(Cc2c[nH]c3ncc(-c4cnn(C5CCN(C)CC5)c4)cc23)c1F` [Trifluoroacetate salt of embodiment 13], the IC50 against human FGFR1 turned out to be 0.04 nM; against human FGFR4 it was 9 nM; against human c-Met, 7.62 nM.

On to `COc1cc(OC)c(F)c(Cc2c[nH]c3ncc(-c4cnn(C5CCN(C(C)C)CC5)c4)cc23)c1F` [Trifluoroacetate salt of embodiment 14], for which the IC50 is 1.34 nM against human FGFR1, 27.5 nM at human FGFR4 and 14 nM at human c-Met.

In the case of `COc1cc(OC)c(F)c(Cc2c[nH]c3ncc(-c4cnn(C5CCN(C6COC6)CC5)c4)cc23)c1F` [Trifluoroacetate salt of embodiment 15], the IC50 on human FGFR1 was determined as 1.94 nM; against human FGFR4, 25.9 nM; against human c-Met it was 16 nM.

Turning to `COc1ccc(F)c(Cc2c[nH]c3ncc(-c4cnn(C5CCNCC5)c4)cc23)c1F` [Trifluoroacetate salt of embodiment 19], the IC50 was found to be 13.7 nM against human FGFR1, 262 nM at human FGFR4 and 5.7 nM on human c-Met.

On to `COc1cc(OC)c(F)c(CC2=CN=C3N=CC(c4cnn(CCN5CCOCC5)c4)=CC23)c1F` (stereo not drawn) [Trifluoroacetate salt of embodiment 21], for which the IC50 came to 2 nM on human FGFR1, 25.2 nM against human FGFR4 and 55.9 nM against human c-Met.

For `COc1cc(OC)c(F)c(Cc2c[nH]c3ncc(-c4cnn(C5CN(S(C)(=O)=O)C5)c4)cc23)c1F` [Trifluoroacetate salt of embodiment 23], the IC50 at human FGFR1 stood at 4.85 nM; at human FGFR4 it was 43.9 nM; against human c-Met, 21 nM.

With `CCN1CC(n2cc(-c3cnc4[nH]cc(Cc5c(F)c(OC)cc(OC)c5F)c4c3)cn2)C1` [Trifluoroacetate salt of embodiment 25], the IC50 against human FGFR1 was 2.1 nM; on human FGFR4, 31.9 nM; against human c-Met it was 16.9 nM.

With `COc1cc(OC)c(F)c(Cc2c[nH]c3ncc(-c4cnn(CC5CNC5)c4)cc23)c1F` [Trifluoroacetate salt of embodiment 29], the IC50 stood at 1.9 nM at human FGFR1, 24.6 nM on human FGFR4 and 35.6 nM at human c-Met.

Turning to `COc1cc(OC)c(F)c(Cc2c[nH]c3ncc(-c4cnn(S(C)(=O)=O)c4)cc23)c1F` [Trifluoroacetate salt of embodiment 30], the figures for the IC50 on human FGFR1, at human FGFR4 and against human c-Met were 2.1 nM, 28.2 nM and 169 nM, respectively.

On to `COc1cc(OC)c(F)c(Cc2c[nH]c3ncc(-c4cnn(C5CCC(O)CC5)c4)cc23)c1F` (stereo not drawn) [Trifluoroacetate salt of embodiment 31], for which the IC50 against human FGFR1 is 0.9 nM; at human FGFR4 it was 9.9 nM; at human c-Met, 6.9 nM.

Consider `CCN1CCC(n2cc(-c3cnc4[nH]cc(Cc5c(F)ccc(OC)c5F)c4c3)c(C)n2)CC1` [Trifluoroacetate salt of embodiment 39], for which the values for the IC50 against human FGFR1, on human FGFR4 and against human c-Met were 29 nM, 752 nM and 24.5 nM, respectively.

Turning to `COc1cc(OC)c(F)c(Cc2c[nH]c3ncc(-c4cnc5c(c4)CNC5)cc23)c1F` [Trifluoroacetate salt of embodiment 50], the IC50 was 0.12 nM against human FGFR1, 4.4 nM against human FGFR4 and 136 nM on human c-Met.

For the compound `CCN1Cc2cc(-c3cnc4[nH]cc(Cc5c(F)c(OC)cc(OC)c5F)c4c3)cnc2C1` [Trifluoroacetate salt of embodiment 51], the IC50 at human FGFR1 stood at 0.27 nM; against human FGFR4 it was 3 nM; on human c-Met, 84.1 nM.

Consider `COc1cc(OC)c(F)c(Cc2c[nH]c3ncc(-c4cnc5c(c4)CNCC5)cc23)c1F` [Trifluoroacetate salt of embodiment 52], for which the IC50 on human FGFR1 worked out at 0.06 nM; against human FGFR4, 13.7 nM; on human c-Met it was 137 nM.

`CCN1CCc2ncc(-c3cnc4[nH]cc(Cc5c(F)c(OC)cc(OC)c5F)c4c3)cc2C1` [Trifluoroacetate salt of embodiment 53]: the IC50 on human FGFR1 stood at 0.32 nM; against human FGFR4, 2.9 nM; against human c-Met, 107 nM.

Regarding `COc1cc(OC)c(F)c(Cc2c[nH]c3ncc(-c4ccc5c(c4)NC(=O)C54CCNCC4)cc23)c1F` [Trifluoroacetate salt of embodiment 54], the IC50 is 2.7 nM against human FGFR1, 58.5 nM at human FGFR4 and 16.5 nM at human c-Met.

For the compound `CCN1CCC2(CC1)C(=O)Nc1cc(-c3cnc4[nH]cc(Cc5c(F)c(OC)cc(OC)c5F)c4c3)ccc12` [Trifluoroacetate salt of embodiment 55], the IC50 against human FGFR1 came out at 2.2 nM; at human FGFR4, 44.9 nM; against human c-Met it was 22.8 nM.

In the case of `COc1cc(OC)c(F)c(Cc2c[nH]c3ncc(-c4ccc5c(c4)NC(=O)C54CCN(C)CC4)cc23)c1F` [Trifluoroacetate salt of embodiment 56], the IC50 against human FGFR1 worked out at 1.9 nM; against human FGFR4 it was 53.2 nM; against human c-Met, 7.8 nM.
